Data as given in patent publication US9145424B2, “Treatment of amyotrophic lateral sclerosis” (Northwestern University, priority 2008, dated 2015).
Where two headings read alike, the source gives them in different places.

How the values were obtained:
[1] = test system: PC12 cells that express mutant G93A SOD1; assay: Mutant SOD1-induced cytotoxicity protection assay
Experimental: This idea was tested by examining the sensitivity of PC12 cells to SOD1 aggregates in the presence and absence of proteasome inhibitor MG132. PC12 cells expressing no SOD1, wild type SOD1, G85R SOD1 or G93A SOD1 were grown with or without MG132 (FIG. 1).
PC12 cells expressing G93A SOD1 were treated with 100 nM MG132 with or without co-treatment with geldanamycin or radicicol.

[2] = test system: proteasome activity (Ubi-YFP degradation); assay: Proteasome activity assay (Ubi-YFP in HeLa cells); assay type: cell-based; settings: 25 μM compound, 1 μM MG132
Experimental: FIG. 7. Arylsulfanyl pyrazolones prevent MG132-induced accumulation of Ubi-YFP. HeLa cells were co-transfected with Ubi-YFP and CMV-CFP plasmids, treated with 1 μM MG132 and 25 μM arylsulfanyl pyrazolones and Ubi-YFP fluorescence intensity normalized to CFP.
Since the CMB-003299 cytotoxicity of SOD1 protein aggregates may involve inhibition of proteasome activity, compounds that stimulate proteasome activity could reverse or prevent mutant SOD1-induced cytotoxicity. Thus, active compounds were tested for the ability to stimulate proteasome activity using a cell line expressing ubiquitin-conjugated YFP [Ubi-YFP 74]. In these cells, increased proteasome activity causes increased degradation of Ubi-YFP and decreased YFP fluorescence. Conversely, compounds that inhibit proteasome activity increase accumulation of Ubi-YFP and enhanced YFP fluorescence. As expected, MG132 augments YFP fluorescence intensity ˜3-fold compared to untreated controls (FIG. 7). […] Protein aggregates are present in the absence of MG132 and aggregation is suppressed following treatment with a provided compound.
HeLa cells (20,000/chamber) were plated on 8 chambered Tissue-tek coverglass pretreated with 1 mg/ml poly-D-lysine and allowed to adhere for 18 h at 37° C./5% CO2. Cells were transfected with 0.2 μg each CMV-CFP and Ubi-YFP plasmids using Lipofectamine 2000 according to manufacturer's instructions. Cells were allowed to express CFP and Ubi-YFP for 18 h followed by a 6 h incubation with test compounds (25 μM). MG132 (1 μM) was added for a final 18 h incubation and Ubi-YFP degradation assessed by fluorescence microscopy. Fluorescence intensity of CFP and YFP was calculated on a cell-by-cell basis from captured images using AxioVision software (Zeiss). YFP fluorescence was normalized to CFP fluorescence.

[3] = In vitro microsomal stability, human; assay type: in vitro ADME; settings: Human
Experimental: (§1) Metabolism (microsome, S9 fraction, CYP450): Liver Cytochrome P450 (CYP450) enzymes are the major route for xenobiotic metabolism and microsomal and hepatocyte stability is the best predictor of pharmacokinetic half-life. Cross-species comparisons of metabolism in liver microsomes can predict potential issues with liver toxicity in humans. Selected active compounds are tested in liver microsomes from efficacy species (mouse), toxicity species (rat, dog, monkey), and humans for metabolic stability.
(§2) CMB-087229 was sent for an evaluation of its in vitro ADME properties.
(§3) Two possible amines, secondary and tertiary AAP analogues, were initially screened in the protection assay (FIG. 30) and for in vitro microsomal stability (Table 1) and Caco-2 permeability (Table 2). […] The solubilities of 2 and 3 were good in aqueous media (≧150 μM), and no precipitation occurred at the highest concentration. The in vitro plasma half-life for both compounds was >60 min.

Caco-2 = assay: In vitro Caco-2 permeability; assay type: in vitro ADME
Experimental: General Permeability: High membrane permeability is required for effective GI absorption and optimal bioavailability. Passive permeability is typically assessed in the PAMPA artificial membrane assay (Kansy et al., J. Med. Chem. 2002, 45(8), 1712-1722). Cell-based permeability determinations using the Caco-2 cell assay are more resource intensive but more predictive of active transport or efflux in vivo (Artursson et al., Adv. Drug. Deliv. Rev. 2001, 46(1-3), 27-43). Caco-2 assays are performed as needed during SAR development.

Aqueous solubility = assay type: physicochemical; settings: no precipitation at the highest concentration
Experimental: Solubility: Because compounds are stored in DMSO, it is necessary to determine aqueous solubility of initial hit compounds and their analogs. High solubility in aqueous solution is necessary for high GI absorption, bioavailability, and for chemical formulation. Compounds should be soluble in aqueous solution at >10 μg/ml. Solubility of >50 μg/ml is preferred.

[4] = In vitro microsomal stability, mouse; assay type: in vitro ADME; settings: Mouse; for microsomal CLint: mouse, liver microsomes, read-out: CLint (microsomal intrinsic clearance)
Experimental: as §1, §2, §3

[5] = In vitro plasma stability; assay type: in vitro ADME
Experimental: Plasma stability: Plasma stability of active compounds is assessed in efficacy species (mouse), toxicity species (rat, dog, monkey), and human cells.

cortical neurons = assay: Cortical neuron assay; assay type: cell-based
Experimental: Selected compounds were tested with cortical neurons—a useful preliminary step prior to the expensive and time-consuming ALS mouse model studies. Although long linker compound 24 and cyclic linker compound 27 are active in the PC12 assay, they are not active with cortical neurons. Compound 3 gave better results than the ether counterpart (1), recovering 100% neuronal activity at 10 μM concentration.

[6] = assay type: in vitro ADME; settings: male, Sprague Dawley, rat, pH 7.4
[7] = test system: PC12 cells expressing G93A SOD1; assay: Sensitivity of PC12 cells to proteasome inhibitor, calcein-AM viability; assay type: cell-based; settings: compared with MG132
Experimental: FIGS. 1A-C. […] Cell survival was determined using the viability stain calcein-AM.

[8] = Rattus norvegicus, PC-12, read-out: Best EC50, PC12 G93A SOD1 cells, MG132, calcein-AM viability

With `Cc1cc(SCc2cc(=O)[nH][nH]2)c(C)cc1Cl` [CMB-003299] the EC50 [1, 8] was 0.4 µM and the “effect on MG132-induced Ubi-YFP fluorescence” value [2] was “strongly inhibit”.

For `O=c1cc(CNc2cc(Cl)cc(Cl)c2)[nH][nH]1` [Compound 2, 5-((3,5-Dichlorophenylamino)methyl)-1H-pyrazol-3(2H)-one, reference compound], the T1/2 ([3]; NADPH-absent) was >3 h, the T1/2 ([3]; NADPH-dependent) was 1.58 h and the microsomal CLint ([3]; liver microsomes, NADPH-dependent, read-out: CLint (microsomal intrinsic clearance)) was 24 µL/min/mg. For the same compound, the “Efflux ratio (B→A)/(A→B)” value (Caco-2) was 47.1, the “Papp (A→B)” value (Caco-2) was 0.6 10^−6 cm/s and the “Papp (B→A)” value (Caco-2) was 28.1 10^−6 cm/s. The “solubility in aqueous media” value (Aqueous solubility) was ≥ 150 µM, the T1/2 ([4]; NADPH-absent) was 1.67 h and the T1/2 ([4]; NADPH-dependent) was 0.5 h. The microsomal CLint ([4]; NADPH-absent) was 23 µL/min/mg, the microsomal CLint ([4]; NADPH-dependent) was 78 µL/min/mg and the “in vitro plasma half-life” value [5] was > 1 h.

With `CN(Cc1cc(=O)[nH][nH]1)c1cc(Cl)cc(Cl)c1` [Compound 3, 5-(((3,5-Dichlorophenyl)(methyl)amino)methyl)-1H-pyrazol-3(2H)-one] the neuronal activity recovered (cortical neurons; 10 μM) was 100%, the T1/2 ([3]; NADPH-absent) was >3 h and the T1/2 ([3]; NADPH-dependent) was >3 h. The “Efflux ratio (B→A)/(A→B)” value (Caco-2) was 3.5, the “Papp (A→B)” value (Caco-2) was 2.2 10^−6 cm/s and the “Papp (B→A)” value (Caco-2) was 7.6 10^−6 cm/s. The “solubility in aqueous media” value (Aqueous solubility) was ≥ 150 µM, the T1/2 ([4]; NADPH-absent) was >3 h and the T1/2 ([4]; NADPH-dependent) was 0.417 h. For the same compound, the microsomal CLint ([4]; NADPH-dependent) was 93 µL/min/mg and the “in vitro plasma half-life” value [5] was > 1 h.

With `CN(CCCc1cc(=O)[nH][nH]1)c1cc(Cl)cc(Cl)c1` [Compound 24, 5-(3-((3,5-Dichlorophenyl)(methyl)amino)propyl)-1H-pyrazol-3(2H)-one] the “activity in the cytotoxicity protection assay, in words” value [1] was “active” and the “activity with cortical neurons, in words” value (cortical neurons) was “not active”.

For `O=c1[nH][nH]c2c1CN(c1cc(Cl)cc(Cl)c1)CC2` [Compound 27, 5-(3,5-Dichlorophenyl)-4,5,6,7-tetrahydro-1H-pyrazolo[4,3-c]pyridin-3(2H)-one], the “activity in the cytotoxicity protection assay, in words” value [1] was “active” and the “activity with cortical neurons, in words” value (cortical neurons) was “not active”.

For `CN(Cc1cc(=O)n(C)n1C)c1cc(Cl)cc(Cl)c1` [Compound 33, 5-(((3,5-Dichlorophenyl)(methyl)amino)methyl)-1,2-dimethyl-1H-pyrazol-3(2H)-one], the “activity in the cytotoxicity protection assay, in words” value [1] was “devoid of activity”.

With `CN1N=C(CN(C)c2cc(Cl)cc(Cl)c2)C(C)(C)C1=O` [Compound 34, 3-(((3,5-Dichlorophenyl)(methyl)amino)methyl)-1,4,4-trimethyl-1H-pyrazol-5(4H)-one] the “activity in the cytotoxicity protection assay, in words” value [1] was “devoid of activity”.

With `Cc1cc(-c2ccccc2)nnc1NCCN1CCOCC1` [Mina, Minaprine, reference compound] the “% Mean ± S.E.” value ([6]; 0 min, 5 μM) was 100 ± 11.5%, the “RR Mean (Response Ratio)” value ([6]; 0 min, 5 μM) was 0.711 and the “% Mean ± S.E.” value ([6]; 0 min, 15 μM) was 100 ± 7.11%. For the same compound, the “RR Mean (Response Ratio)” value ([6]; 0 min, 15 μM) was 22.88, the “% Mean ± S.E.” value ([6]; 20 min, 15 μM) was 59.2 ± 14.9% and the “RR Mean (Response Ratio)” value ([6]; 20 min, 15 μM) was 13.54. For the same compound, the “% Mean ± S.E.” value ([6]; 40 min, 5 μM) was 45.2 ± 8.1^ % and the “RR Mean (Response Ratio)” value ([6]; 40 min, 5 μM) was 0.321.

With `O=c1cc(CS(=O)(=O)c2ccc(Cl)cc2)[nH][nH]1` [TC-II-70] the “% Mean ± S.E.” value ([6]; 0 min, 15 μM) was 100 ± 12.6%, the “RR Mean (Response Ratio)” value ([6]; 0 min, 15 μM) was 0.237 and the “% Mean ± S.E.” value ([6]; 20 min, 15 μM) was 109 ± 13.3%. For the same compound, the “RR Mean (Response Ratio)” value ([6]; 20 min, 15 μM) was 0.261, the “% Mean ± S.E.” value ([6]; 40 min, 15 μM) was 84.8 ± 21.8% and the “RR Mean (Response Ratio)” value ([6]; 40 min, 15 μM) was 0.201.

`O=c1cc(CSCc2ccc(Cl)cc2)[nH][nH]1` [TC-II-123] showed an EC50 [1, 8] of 4.2 µM.

For `O=c1cc(CSCCOc2ccccc2)[nH][nH]1` [TC-II-140], the EC50 ([1]; read-out: Best EC50, PC12 G93A SOD1 cells, MG132, calcein-AM viability) was 6.2 µM.

With `CC(=O)CC(c1ccccc1)c1c(O)c2ccccc2oc1=O` (centres unmarked) [War, warfarin, reference compound] the “% Mean ± S.E.” value ([6]; 0 min, 15 μM) was 100 ± 7.75% and the “% Mean ± S.E.” value ([6]; 60 min, 15 μM) was 96.1 ± 7.66%.

For `CC(C)C[C@H](NC(=O)[C@H](Cc1ccccc1)NC(=O)c1cnccn1)B(O)O` [bortezomib], the “sensitivity to proteasome inhibition, in words” value [7] was “Qualitatively similar results”.
